Laboratory results: the NIST ThermoML archive (doi:10.1016/j.jct.2018.07.031)
± gives the expanded uncertainty stated by the source.

Assays:
[1] = refractive index (Na D-line) (dimensionless); xn = mol fraction of the nth substance listed; conditions: 100 kPa, Liquid, Standard Abbe refractometry, x1 = 0.333
[2] = molar heat capacity at constant pressure; xn = mol fraction of the nth substance listed; conditions: 100 kPa, Liquid, DSC, x1 = 0.333
[3] = xn = mol fraction of the nth substance listed; conditions: x1 = 0.333; for surface tension liquid-gas: Drop volume; for viscosity / electrical conductivity / speed of sound / mass density: 100 kPa, Liquid; for viscosity: Capillary tube (Ostwald / Ubbelohde) method; for electrical conductivity: Frequency=0.002 MHz, Alternating current cell with electrodes; for speed of sound: Frequency=3 MHz, Single path-length method; for mass density: Vibrating tube method

C[N+](C)(C)CCO.[Cl-] [choline chloride] + OCC(O)CO
Conditions | electrical conductivity, [3] [S/m] | mass density, [3] [kg/m3] | molar heat capacity at constant pressure, [2] [J/K/mol] | refractive index, [1] | speed of sound, [3] [m/s] | surface tension liquid-gas, [3] [mN/m] | viscosity, [3] [mPa·s]
278.15 K | 0.026 ± 0.0005 | 1207.05 ± 2.7 | 211.5 ± 8.2 | – | 2049.6 ± 2.1 | 68.01 ± 0.75 | 1511 ± 88
280.65 K | 0.032 ± 0.0006 | 1205.6 ± 2.7 | 212.5 ± 8.2 | – | 2042.8 ± 2.1 | 67.9 ± 0.75 | 1211 ± 66
283.15 K | 0.0406 ± 0.0008 | 1204.2 ± 2.7 | 213.5 ± 8.3 | 1.48809 ± 0.00051 | 2036.2 ± 2.1 | 67.77 ± 0.75 | 982.4 ± 50
285.65 K | 0.0491 ± 0.001 | 1202.8 ± 2.7 | 214.5 ± 8.3 | 1.4875 ± 0.00051 | 2029.9 ± 2.1 | 67.65 ± 0.74 | 801.5 ± 39
288.15 K | 0.0587 ± 0.0012 | 1201.4 ± 2.7 | 215 ± 8.3 | 1.48698 ± 0.00051 | 2024 ± 2.1 | 67.5 ± 0.74 | 658.4 ± 30
290.65 K | 0.0703 ± 0.0014 | 1200 ± 2.7 | 216 ± 8.4 | 1.48632 ± 0.00051 | 2018.2 ± 2.1 | 67.34 ± 0.74 | 543.7 ± 23
293.15 K | 0.0839 ± 0.0017 | 1198.55 ± 2.7 | 217 ± 8.4 | 1.48574 ± 0.00051 | 2012.6 ± 2.1 | 67.2 ± 0.74 | 452.6 ± 18
295.65 K | 0.0992 ± 0.002 | 1197.15 ± 2.7 | 217.5 ± 8.4 | 1.48514 ± 0.00051 | 2006.9 ± 2.1 | 67.1 ± 0.74 | 378.5 ± 15
298.15 K | 0.117 ± 0.002 | 1195.75 ± 2.7 | 218.5 ± 8.5 | 1.48455 ± 0.00051 | 2001.3 ± 2.1 | 66.95 ± 0.74 | 319.7 ± 12
300.65 K | 0.136 ± 0.003 | 1194.3 ± 2.7 | 219 ± 8.5 | 1.48396 ± 0.00051 | 1995.8 ± 2.1 | 66.81 ± 0.74 | 271.4 ± 9.3
303.15 K | 0.158 ± 0.003 | 1192.9 ± 2.7 | 220 ± 8.5 | 1.48337 ± 0.00051 | 1990.2 ± 2.1 | 66.7 ± 0.74 | 232.1 ± 7.6
305.65 K | 0.182 ± 0.004 | 1191.5 ± 2.7 | 221 ± 8.6 | 1.48278 ± 0.00051 | 1984.7 ± 2.1 | 66.57 ± 0.73 | 199 ± 6.2
308.15 K | 0.21 ± 0.004 | 1190.15 ± 2.7 | 221.5 ± 8.6 | 1.48218 ± 0.00051 | 1979.2 ± 2.1 | 66.43 ± 0.73 | 171.6 ± 5.1
310.65 K | 0.24 ± 0.005 | 1188.75 ± 2.7 | 222.5 ± 8.6 | 1.48159 ± 0.00051 | 1973.8 ± 2.1 | 66.31 ± 0.73 | 149 ± 4.2
313.15 K | 0.276 ± 0.006 | 1187.4 ± 2.7 | 223.5 ± 8.7 | 1.48098 ± 0.00051 | 1968.3 ± 2.1 | 66.18 ± 0.73 | 130 ± 3.5
315.65 K | 0.314 ± 0.006 | 1186 ± 2.7 | 224 ± 8.7 | 1.4804 ± 0.00051 | 1962.8 ± 2.1 | 66.05 ± 0.73 | 113.8 ± 2.9
318.15 K | 0.352 ± 0.007 | 1184.65 ± 2.7 | 225 ± 8.7 | 1.4798 ± 0.00051 | 1957.4 ± 2.1 | 65.93 ± 0.73 | 100 ± 2.5
320.65 K | 0.394 ± 0.008 | 1183.25 ± 2.7 | 226 ± 8.8 | 1.47921 ± 0.00051 | 1951.8 ± 2.1 | 65.74 ± 0.73 | 88.43 ± 2.1
323.15 K | 0.439 ± 0.009 | 1181.9 ± 2.7 | 227 ± 8.8 | 1.4786 ± 0.00051 | 1946.3 ± 2.1 | 65.62 ± 0.72 | 78.39 ± 1.8
325.65 K | 0.487 ± 0.01 | 1180.5 ± 2.7 | 228 ± 8.8 | 1.47801 ± 0.00051 | 1940.7 ± 2.1 | 65.48 ± 0.72 | 69.46 ± 1.6
328.15 K | 0.544 ± 0.011 | 1179.1 ± 2.7 | 228.5 ± 8.8 | 1.47741 ± 0.00051 | 1935.2 ± 2.1 | 65.38 ± 0.72 | 62.06 ± 1.4
330.65 K | 0.603 ± 0.012 | 1177.7 ± 2.6 | 229 ± 8.9 | 1.47681 ± 0.00051 | 1929.6 ± 2.1 | 65.23 ± 0.72 | 55.63 ± 1.2
333.15 K | 0.662 ± 0.013 | 1176.35 ± 2.6 | 230 ± 8.9 | 1.47622 ± 0.00051 | 1924.1 ± 2.1 | 65.1 ± 0.72 | 50.05 ± 1.1
335.65 K | 0.729 ± 0.015 | 1174.95 ± 2.6 | 231 ± 8.9 | 1.47564 ± 0.00051 | 1918.5 ± 2.1 | 64.97 ± 0.72 | 45.19 ± 1
338.15 K | 0.801 ± 0.016 | 1173.55 ± 2.6 | 232 ± 9 | 1.47504 ± 0.00051 | 1912.9 ± 2.1 | 64.84 ± 0.72 | 40.94 ± 0.93
